Experimental data as given in US11091511B2, “Panaxdiol-type ginsenoside derivative, preparation method therefor and use thereof” (ARMY MEDICAL UNIVERSITY, priority 2016, dated 2021).
Marks after values point to notes of the source that are not given here.

Key:
[1] = tested on: RAW264.7 cells; test: RAW264.7 cell survival rate by CCK8 method; type: cell-based, mouse; conditions: compound 10 prnol/L, 0.1% DMSO, CCK8, x ± s, n = 3, normal saline control = 1
Description: In order to further verify the toxicities of the compounds prepared in Examples 1-30 of the present invention, the mouse macrophage cell line RAW264.7 was cultured, and the compounds prepared in Examples 1-30 of the invention were prepared to a concentration of […] using culture medium, wherein the solvent was normal saline, the co-solvent was dimethyl sulfoxide (DMSO, the final concentratoin was 0.1%), and a 0.1% DMSO saline control group was provided. The cell survival rate was determined by CCK8 method. The data were expressed as x±s. SPSS 10.0 line single-factor analysis of variance was performed among groups. The difference was significant when p<0.05.

[2] = tested on: apoE−/− mice; test: Atherosclerotic plaque area to total aortic area in apoE-/- mice on high-fat diet (Sudan IV staining); type: in vivo, mouse; conditions: intragastric 15 weeks, compounds 30 mg/(kg·d), simvastatin 10 mg/(kg·d), x ± s, n = 5, saline control 14.67 ± 3.58
Source text: The effects of the compounds prepared in Examples 1-30 of the present invention on the percentages of areas of atherosclerotic plaque formation to the area of the entire artery in apoE−/− mice with a high-fat diet and the levels of low-density lipoprotein cholesterol and the levels of high-density lipoprotein, the specific steps are as follows: 1. animals: 160 ten-week-old, healthy and clean-grade apoE−/− mice (purchased from Peking University Experimental Animal Center), males, weight: 22-25 g, were housed in separate cages in a sterile laminar feeding room and fed freely. The mice were fed by a high-fat diet (conventional feed+0.15% cholesterol+21% lard) for 25 weeks, the room temperature was kept at 24° C., relative humidity: 50%, illumination time 7:30-19:30. 2. Grouping, administration method: after 10 weeks of feeding, the animals were divided into the following 32 groups (n=5) by weight in a balanced and random manner, and killed 15 weeks after administration. Normal saline control group: normal saline, intragastric administration. Positive control group: simvastatin 10 mg/(kg·d), intragastric administration. The compound groups prepared in Examples 1-30 of the present invention (30 groups in total): each was intragastric administered 30 mg/(kg·d). (1) Analysis of the area of atherosclerotic plaque and its percentage to total area: after the animals were killed, the aortas were separated, from the roots of the aortas to the terminal bifurcations of the abdominal aortas. After formalin fixation, the aortas were stained with Sudan IV, the red stained parts were the areas of atherosclerotic lesions. The percentage of the area of the lesion area to total area was calculated using Image Pro Plus 5.0 software. Data were expressed as x±s, and SPSS 10.0 line single-factor analysis of variance was performed among groups, a significant difference was indicated when p<0.05.

[3] = tested on: apoE−/− mice; test: Blood lipids (LDL-C, HDL-C) in apoE-/- mice on high-fat diet; type: in vivo, mouse; conditions: apoE-/- mice serum, intragastric 15 weeks, compounds 30 mg/(kg·d), simvastatin 10 mg/(kg·d), x ± s; for HDL-C: n = 5, saline control 3.74 ± 0.62; for LDL-C: n = 5, saline control 7.33 ± 1.03
Source text: The effects of the compounds prepared in Examples 1-30 of the present invention on the percentages of areas of atherosclerotic plaque formation to the area of the entire artery in apoE−/− mice with a high-fat diet and the levels of low-density lipoprotein cholesterol and the levels of high-density lipoprotein, the specific steps are as follows:
1. animals: 160 ten-week-old, healthy and clean-grade apoE−/− mice (purchased from Peking University Experimental Animal Center), males, weight: 22-25 g, were housed in separate cages in a sterile laminar feeding room and fed freely. The mice were fed by a high-fat diet (conventional feed+0.15% cholesterol+21% lard) for 25 weeks, the room temperature was kept at 24° C., relative humidity: 50%, illumination time 7:30-19:30.
2. Grouping, administration method:
after 10 weeks of feeding, the animals were divided into the following 32 groups (n=5) by weight in a balanced and random manner, and killed 15 weeks after administration.
Normal saline control group: normal saline, intragastric administration.
Positive control group: simvastatin 10 mg/(kg·d), intragastric administration.
The compound groups prepared in Examples 1-30 of the present invention (30 groups in total): each was intragastric administered 30 mg/(kg·d).
(2) Determination of the levels of total cholesterol (TC), low-density cholesterol lipoprotein (LDL-C) and high-density lipoprotein cholesterol (HDL-C): using ROCHE 7060 automatic biochemical analyzer for the determination.
Data were expressed as x±s, and SPSS 10.0 line single-factor analysis of variance was performed among groups, a significant difference was indicated when p<0.05.

[4] = tested on: TNF-α; test: Local TNF-α level in the arteries of apoE-/- mice (Millipore liquid phase chip); type: in vivo, mouse; conditions: high-fat diet, intragastric 15 weeks, compounds 30 mg/(kg·d), simvastatin 10 mg/(kg·d), x ± s, n = 5, saline control 25.58 ± 6.44
Source text: The effects of the compounds prepared in Examples 1-30 of the present invention on the percentages of areas of atherosclerotic plaque formation to the area of the entire artery in apoE−/− mice with a high-fat diet and the levels of low-density lipoprotein cholesterol and the levels of high-density lipoprotein, the specific steps are as follows: 1. animals: 160 ten-week-old, healthy and clean-grade apoE−/− mice (purchased from Peking University Experimental Animal Center), males, weight: 22-25 g, were housed in separate cages in a sterile laminar feeding room and fed freely. The mice were fed by a high-fat diet (conventional feed+0.15% cholesterol+21% lard) for 25 weeks, the room temperature was kept at 24° C., relative humidity: 50%, illumination time 7:30-19:30. 2. Grouping, administration method: after 10 weeks of feeding, the animals were divided into the following 32 groups (n=5) by weight in a balanced and random manner, and killed 15 weeks after administration. Normal saline control group: normal saline, intragastric administration. Positive control group: simvastatin 10 mg/(kg·d), intragastric administration. The compound groups prepared in Examples 1-30 of the present invention (30 groups in total): each was intragastric administered 30 mg/(kg·d). (3) Determination of TNF-α level: Millipore liquid phase chip method was used for the determination (Mcytomag-70K-3, Mouse Cytokine/Chemokine Magnetic Bead Panel). Data were expressed as x±s, and SPSS 10.0 line single-factor analysis of variance was performed among groups, a significant difference was indicated when p<0.05.

[5] = tested on: RAW264.7 cell-derived foam cells; test: Formation of RAW264.7 cell-derived foam cells (ox-LDL, oil red O, absorbance 490 nm); type: cell-based, mouse; conditions: 48 hours, model group = 100%, x ± s, n = 3
Description: The effects of the compounds prepared in Examples 1-30 of the present invention on the formation of RAW264.7 cell-derived foam cells, the specific steps are as follows:
1. Cell culture and foam cell model establishment:
RAW264.7 cells were cultured in DMEM culture medium with high glucose level (GIBCO) to a cell concentration of 1×10^6, planted in a 6-well plate, and 60 mg/L of ox-LDL (oxidized modified low-density lipoprotein, Peking Union Medical College) was added, foam cells were obtained after 48 hours of incubation.
2. Grouping and index detection:
The obtained foam cells were divided into 61 groups, 3 well plates were included in one group. After the treatment by adding the drugs (100 μL/well) for 48 hours, the medium was discarded, and after oil red 0 staining, the excess amount of oil red 0 was washed away. The cells were dissolved in isopropanol and the absorbance values were measured at 490 nm. The OD value of the model group was 100%, and the OD value of each group corrected by the number of cells was compared with the model group to obtain the ratio of intracellular lipid content. The larger the value, the more intracellular lipids, the higher the degree of formation of foam cells.
Normal saline control group: normal saline
Low dose groups of the compounds prepared in Examples 1-30 of the present invention:
10 μmol/L (solvents were normal saline).
High dose groups of compounds prepared in Examples 1-30 of the present invention: 30 μmol/L (solvents were normal saline).
Data were expressed as x±s, and SPSS 10.0 line single-factor analysis of variance was performed amoung groups, a significant difference was indicated when p<0.05.

SMILES | Cell Survival Rate [1] | Plaque area/total aorta area (%) [2] | HDL-C [3] | LDL-C [3] | TNF-α level (ng/g) [4] | Foam cell formation (%) ([5]; dose 10 μmol/L) | Foam cell formation (%) ([5]; dose 30 μmol/L)
CC(=O)OC[C@H]1O[C@H](O[C@@](C)(CCC=C(C)C)C2CC[C@]3(C)[C@@H]2C(OC(C)=O)CC2[C@@]4(C)CC[C@H](OC(C)=O)C(C)(C)C4CC[C@]23C)[C@H](OC(C)=O)[C@@H](OC(C)=O)[C@@H]1OC(C)=O (some centres unmarked) [Compound 1] | 0.65 ± 0.07 ^a | 10.65 ± 2.62 ^a % | 4.55 ± 0.86 ^a mmol/L | 6.39 ± 1.09 mmol/L | 19.41 ± 3.81 ^a ng/g | 83 ± 12% | 65 ± 18 ^a %
CC(=O)OC[C@H]1O[C@H](O[C@@](C)(CCC2OC2(C)C)C2CC[C@]3(C)[C@@H]2C(OC(C)=O)CC2[C@@]4(C)CC[C@H](OC(C)=O)C(C)(C)C4CC[C@]23C)[C@H](OC(C)=O)[C@@H](OC(C)=O)[C@@H]1OC(C)=O (some centres unmarked) [Compound 2] | 0.51 ± 0.08 ^a | 8.27 ± 2.54 ^a % | 5.47 ± 0.91 ^a mmol/L | 5.56 ± 1.24 ^a mmol/L | 13.24 ± 3.71 ^a ng/g | 70 ± 25 ^a % | 64 ± 19%
CC(=O)OC[C@H]1O[C@H](O[C@@](C)(CCC=O)C2CC[C@]3(C)[C@@H]2C(OC(C)=O)CC2[C@@]4(C)CC[C@H](OC(C)=O)C(C)(C)C4CC[C@]23C)[C@H](OC(C)=O)[C@@H](OC(C)=O)[C@@H]1OC(C)=O (some centres unmarked) [Compound 3] | 0.42 ± 0.03 ^a | 9.74 ± 3.19 ^a % | 4.97 ± 0.95 ^a mmol/L | 6.12 ± 1.28 mmol/L | 16.68 ± 4.98 ^a ng/g | 85 ± 20% | 72 ± 13 ^a %
COC(=O)[C@H](CC(C)C)NCCC[C@](C)(O[C@H]1O[C@H](COC(C)=O)[C@@H](OC(C)=O)[C@H](OC(C)=O)[C@H]1OC(C)=O)C1CC[C@]2(C)[C@@H]1C(OC(C)=O)CC1[C@@]3(C)CC[C@H](OC(C)=O)C(C)(C)C3CC[C@]12C (some centres unmarked) [Compound 4] | 0.84 ± 0.02 | 9.52 ± 4.21 ^a % | 5.48 ± 0.61 ^a mmol/L | 4.62 ± 1.58 ^a mmol/L | 11.04 ± 3.68 ^a ng/g | 74 ± 15 ^a % | 54 ± 12 ^a %
COC(=O)[C@@H](NCCC[C@](C)(O[C@H]1O[C@H](COC(C)=O)[C@@H](OC(C)=O)[C@H](OC(C)=O)[C@H]1OC(C)=O)C1CC[C@]2(C)[C@@H]1C(OC(C)=O)CC1[C@@]3(C)CC[C@H](OC(C)=O)C(C)(C)C3CC[C@]12C)C(C)C (some centres unmarked) [Compound 5] | 0.87 ± 0.08 | 10.29 ± 2.67 ^a % | 5.21 ± 0.73 ^a mmol/L | 5.58 ± 1.89 ^a mmol/L | 17.73 ± 4.87 ^a ng/g | 77 ± 18 ^a % | 62 ± 13 ^a %
COC(=O)[C@H](NCCC[C@](C)(O[C@H]1O[C@H](COC(C)=O)[C@@H](OC(C)=O)[C@H](OC(C)=O)[C@H]1OC(C)=O)C1CC[C@]2(C)[C@@H]1C(OC(C)=O)CC1[C@@]3(C)CC[C@H](OC(C)=O)C(C)(C)C3CC[C@]12C)[C@@H](C)O (some centres unmarked) [Compound 6] | 0.83 ± 0.09 | 8.16 ± 2.83 ^a % | 5.51 ± 0.94 ^a mmol/L | 6.04 ± 1.07 mmol/L | 11.35 ± 4.97 ^a ng/g | 73 ± 16 ^a % | 48 ± 14 ^a %
COC(=O)[C@H](CO)NCCC[C@](C)(O[C@H]1O[C@H](COC(C)=O)[C@@H](OC(C)=O)[C@H](OC(C)=O)[C@H]1OC(C)=O)C1CC[C@]2(C)[C@@H]1C(OC(C)=O)CC1[C@@]3(C)CC[C@H](OC(C)=O)C(C)(C)C3CC[C@]12C (some centres unmarked) [Compound 7] | 0.86 ± 0.01 | 11.02 ± 2.71 ^a % | 4.52 ± 0.46 ^a mmol/L | 5.50 ± 1.82 ^a mmol/L | 17.77 ± 4.63 ^a ng/g | 83 ± 13% | 71 ± 13 ^a %
CCC(C)(C)C(=O)O[C@H]1C[C@@H](C)C=C2C=C[C@H](C)[C@H](CC[C@@H]3C[C@@H](O)CC(=O)O3)[C@H]21 [Simvastatin, simvastatin, reference compound] | – | 7.95 ± 2.03 ^a % | 3.69 ± 0.72 ^a mmol/L | 2.75 ± 1.89 ^a mmol/L | 14.84 ± 3.22 ^a ng/g | – | –
